Tests used:
Angiopoietin-1 receptor [1] = molecular target: T1, Angiopoietin-1 receptor (Homo sapiens, UniProt Q02763); assay: Inhibitory concentration against human tyrosine protein kinase receptor TIE-2
[2] = molecular target: Vascular endothelial growth factor receptor 2 (Homo sapiens, UniProt P35968); assay: Inhibitory concentration against human vascular endothelial growth factor receptor 2
HFF = assay: Cytotoxic concentration against HFF cells was determined; type: functional, cell-based; conditions: Homo sapiens
HUVEC = assay: Concentration required for growth inhibition of human umbilical vein endothelial cells stimulated by VEGF; type: functional, cell-based
Angiopoietin-1 receptor [3] = molecular target: T1, Angiopoietin-1 receptor; assay: Concentration required to inhibit autophosphorylation of tyrosine protein kinase receptor TIE-2 transfected in 3T3 cells; type: functional, cell-based, NIH3T3

T1 sequence (Q02763 whole entry): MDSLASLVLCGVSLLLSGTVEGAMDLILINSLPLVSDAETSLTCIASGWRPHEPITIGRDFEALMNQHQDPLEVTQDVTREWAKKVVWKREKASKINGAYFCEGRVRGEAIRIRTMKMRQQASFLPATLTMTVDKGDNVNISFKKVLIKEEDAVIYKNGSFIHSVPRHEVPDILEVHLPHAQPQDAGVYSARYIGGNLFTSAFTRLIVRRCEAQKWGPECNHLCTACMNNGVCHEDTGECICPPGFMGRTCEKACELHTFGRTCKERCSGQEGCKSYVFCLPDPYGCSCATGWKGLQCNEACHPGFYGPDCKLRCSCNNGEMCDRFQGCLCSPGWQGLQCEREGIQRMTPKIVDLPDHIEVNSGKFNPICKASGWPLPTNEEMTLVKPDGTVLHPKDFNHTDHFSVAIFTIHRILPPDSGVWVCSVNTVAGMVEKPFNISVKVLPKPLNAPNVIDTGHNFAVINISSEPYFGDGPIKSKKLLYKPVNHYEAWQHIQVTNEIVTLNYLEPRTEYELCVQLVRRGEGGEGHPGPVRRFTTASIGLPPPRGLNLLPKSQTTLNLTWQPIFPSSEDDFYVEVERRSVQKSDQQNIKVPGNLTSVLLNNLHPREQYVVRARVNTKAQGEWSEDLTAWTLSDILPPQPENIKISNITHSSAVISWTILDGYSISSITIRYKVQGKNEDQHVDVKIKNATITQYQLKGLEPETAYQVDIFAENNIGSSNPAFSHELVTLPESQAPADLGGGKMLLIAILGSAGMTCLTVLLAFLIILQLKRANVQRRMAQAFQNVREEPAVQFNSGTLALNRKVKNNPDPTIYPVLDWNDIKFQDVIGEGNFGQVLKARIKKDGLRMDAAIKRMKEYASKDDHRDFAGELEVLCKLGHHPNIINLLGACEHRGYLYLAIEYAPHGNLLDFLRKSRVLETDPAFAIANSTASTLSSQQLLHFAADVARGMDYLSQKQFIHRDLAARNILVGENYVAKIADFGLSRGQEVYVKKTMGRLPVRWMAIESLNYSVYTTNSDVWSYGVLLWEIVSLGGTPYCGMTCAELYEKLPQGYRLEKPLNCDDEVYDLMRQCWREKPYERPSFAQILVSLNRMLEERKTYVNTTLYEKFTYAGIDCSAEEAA
Sequence of Vascular endothelial growth factor receptor 2 (P35968 whole entry): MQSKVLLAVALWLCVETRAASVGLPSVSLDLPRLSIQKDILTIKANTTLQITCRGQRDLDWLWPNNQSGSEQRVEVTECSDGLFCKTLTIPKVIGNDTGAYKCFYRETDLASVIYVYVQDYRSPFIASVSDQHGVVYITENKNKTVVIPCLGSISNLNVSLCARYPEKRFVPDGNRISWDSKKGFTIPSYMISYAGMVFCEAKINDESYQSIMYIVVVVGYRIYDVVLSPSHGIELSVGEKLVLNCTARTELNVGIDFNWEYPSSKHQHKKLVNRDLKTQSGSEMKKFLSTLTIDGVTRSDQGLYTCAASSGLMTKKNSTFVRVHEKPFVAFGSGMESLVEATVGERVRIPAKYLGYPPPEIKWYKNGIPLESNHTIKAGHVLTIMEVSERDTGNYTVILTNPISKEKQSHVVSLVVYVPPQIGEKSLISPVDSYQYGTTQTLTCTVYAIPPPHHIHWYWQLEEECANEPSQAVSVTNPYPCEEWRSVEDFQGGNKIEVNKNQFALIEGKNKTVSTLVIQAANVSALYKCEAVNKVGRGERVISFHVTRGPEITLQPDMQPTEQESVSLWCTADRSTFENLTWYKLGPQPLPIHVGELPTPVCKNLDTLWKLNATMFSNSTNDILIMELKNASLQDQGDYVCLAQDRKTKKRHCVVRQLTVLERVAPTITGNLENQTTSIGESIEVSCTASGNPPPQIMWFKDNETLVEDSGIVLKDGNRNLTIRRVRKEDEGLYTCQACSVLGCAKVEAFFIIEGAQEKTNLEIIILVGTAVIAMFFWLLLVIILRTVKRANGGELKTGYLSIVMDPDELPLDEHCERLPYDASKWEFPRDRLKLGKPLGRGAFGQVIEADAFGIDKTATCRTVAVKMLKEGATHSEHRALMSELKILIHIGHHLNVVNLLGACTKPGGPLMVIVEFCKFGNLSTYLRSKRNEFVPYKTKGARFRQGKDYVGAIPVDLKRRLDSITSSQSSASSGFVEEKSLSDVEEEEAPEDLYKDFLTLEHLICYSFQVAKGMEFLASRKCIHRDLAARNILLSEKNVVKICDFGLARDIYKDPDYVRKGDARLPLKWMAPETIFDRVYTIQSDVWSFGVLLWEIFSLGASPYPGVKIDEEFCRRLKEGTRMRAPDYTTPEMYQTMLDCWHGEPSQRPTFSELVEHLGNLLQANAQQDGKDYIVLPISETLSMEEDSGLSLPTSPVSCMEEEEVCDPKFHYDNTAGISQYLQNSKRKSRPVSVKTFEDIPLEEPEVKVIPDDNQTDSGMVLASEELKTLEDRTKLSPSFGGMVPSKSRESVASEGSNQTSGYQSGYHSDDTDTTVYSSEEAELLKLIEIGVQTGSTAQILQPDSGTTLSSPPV

Row | IC50 (Angiopoietin-1 receptor [1]) [nM] | IC50 [2] [nM] | IC50 (Angiopoietin-1 receptor [3]) [nM] | SMILES | IC50 (HFF) [nM] | IC50 (HUVEC) [nM]
1 | 2 | 3 | 6.3 | COc1ccc(-c2oc3ncnc(N)c3c2-c2ccc(NC(=O)Nc3cc(C(F)(F)F)ccc3F)cc2)cc1 | 790 | 45
2 | > 20000 | – | – | COc1ccc(-c2oc3ncnc(N)c3c2-c2cccc(NC(C)=O)c2)cc1 | – | –
3 | 1000 | 1120 | – | COc1ccc(-c2oc3ncnc(N)c3c2-c2ccc(OC)cc2)cc1 | – | –
4 | – | > 20000 | – | COc1ccc(-c2c(-c3ccc(Cl)c(Cl)c3)oc3ncnc(N)c23)cc1 | – | –
5 | > 20000 | 5500 | – | COc1ccc(-c2coc3ncnc(N)c23)cc1 [GW642125X] | – | –
6 | > 20000 | > 17000 | – | COc1ccc(-c2cc3c(N)ncnc3o2)cc1 [GW642138X] | – | –

From ChEMBL document CHEMBL1143549, “Novel 4-amino-furo[2,3-d]pyrimidines as Tie-2 and VEGFR2 dual inhibitors” (Bioorg Med Chem Lett, 2005)
